Counter-ions that a name gives are not always drawn. Like-named read-outs stand apart in the source and are kept apart here.
Key:
[1] = tested on: Pyricularia oryze; assay: whole plant or invertebrate; assay type: in vivo; settings: for Preventive value: rice, compound alone; for pest or weed control at 10 ppm / pest or weed control at 250 ppm: Pyricularia, in Oryza sativa, 168 h, read-out: Preventive value
[2] = tested on: Plasmopara viticola; settings: for Preventive value: alone
Protocol: Test plants (variety: Neo Muscat) were seeded and grown until three leaves. D-Tagatose was diluted to 5000 ppm and the fungicides were diluted to the concentrations listed in table 16, with distilled water, and 10 ml of the dilution was sprayed on the plants. Three days after the spraying of the dilution, the plants were infected by spraying a sporangium suspension of Plasmopara viticola containing 1×10^3/ml and then put for 16 hours in an inoculation chamber (20° C. to 23° C.) to promote disease. The disease severity of the test plants was observed 7 days after inoculation, and the effectiveness of test sample was judged.

[3] = tested on: Pseudoperonospora cubensis; settings: for Preventive value: alone, curative
[4] = tested on: Pseudoperonospora cubensis; settings: for Preventive value: alone
Protocol: Test plants (cucumber, variety: Sagami hanpaku) were seeded and grown until the one true leaf stage. D-Tagatose was diluted to 5000 ppm and the fungicides were diluted to the concentrations listed in table 14, with distilled water. And then 10 ml of the dilution was sprayed on the test plant. Three days after spraying of the solution, a sporangium suspension of Pseudoperonospora cubensis containing 1×10^3/ml were inoculated by spraying on test plants and then put for 16 hours in an inoculation chamber (20° C. to 23° C.) to promote disease. Seven days after inoculation the disease severity of the test plants was observed and the effectiveness of the test sample was judged. Tests were carried out using two plants for each test set and the disease severity of the test plants was judged in accordance with the following criteria. The preventive value was calculated from the degree of disease severity.
0 (No lesion) 1 (Lesion area was not more than 40%) 2 ((Lesion area was 40%-80%) 3 (Lesion area was not less than 80%)
Preventive value=100{1−(n/N)} N=disease severity of untreated leaf, n=disease severity of the test leaf Synergistic effect was determined by Colby's equation.

[5] = tested on: Phytophthora infestans; assay: whole plant or invertebrate; assay type: in vivo; settings: for Preventive value: alone
[6] = tested on: Pythium aphanidermatum; assay: cucumber damping-off, pot test: soil drench of D-tagatose combined with fungicides; settings: for Preventive value: alone, 250 ppm, soil drench
Protocol: Five seeds of test plants (cucumber, variety: Sagami hanpaku) were sowed in a pot (5×5 cm), which contains infested soil with Pythium aphanidermatum (mycelium 100 g/1 L soil) and was covered with soil. D-Tagatose was diluted to 5000 ppm and the fungicides were diluted to the concentrations listed in table 18, with distilled water. The pot was drenched with 10 ml of the dilution. After 2 weeks, the disease severity of the test plants was observed and the effectiveness of test sample was judged. Tests were carried out in triplicate using 5 plants for each test set and the preventive value was calculated from the germination rate.

[7] = tested on: Puccinia recondita; settings: for Preventive value: wheat, compound alone
Protocol: Test plants (variety: Nourin 61 gou) were sowed and grown until two leaves stage.
D-Tagatose and fungicide were diluted to 10000 ppm and the concentration listed in table 19, respectively, with distilled water, and 10 ml of the dilution was sprayed thoroughly on the plants. Three days after the spraying of the dilution, the plants were inoculated with Puccinia recondita containing 1×10^3/ml and then put for 16 hours in an inoculation chamber (20° C. to 23° C.) to promote disease. Seven days after inoculation the disease severity of the test plants was observed and the effectiveness of test sample was judged.

[8] = tested on: Erysiphe graminis f.sp. hordei; settings: for Preventive value: barley, compound alone
Protocol: Test plants (barley, variety: Akashinriki) were seeded and grown until the one leaf stage. D-tagatose and fungicide were diluted to 5000 ppm and the concentrations listed in table 21, respectively, with distilled water and 10 ml of the dilution was sprayed thoroughly on the plants. Three days after spraying, a condia suspension of Erysiphe graminis f.sp. hordei was inoculated by spraying on test plants. 7 days after inoculation the disease severity of the test plants was observed and the effectiveness of test sample was judged.

[9] = tested on: Sphaerotheca fuliginea; settings: for Preventive value: cucumber, compound alone
Protocol: Test plants (cucumber, variety: Sagami hanpaku) were seeded and grown until the one true leaf stage. D-Tagatose and fungicide were diluted to 5000 ppm and the concentrations listed in table 20, respectively, with distilled water and 10 ml of the dilution was sprayed thoroughly on the plants. Three days after spraying, a condia suspension containing of Sphaerotheca fuliginea were inoculated by spraying on test plants.
Seven days after inoculation the disease severity of the test plants was observed and the effectiveness of test sample was judged.

[10] = tested on: Botrytis cinerea; settings: for Preventive value: tomato, compound alone
Protocol: Test plants (tomato, variety: Ogata-fukujyu) were seeded and grown until the three leaf stage. D-Tagatose and fungicide were diluted to 10000 ppm and the concentrations liste in table 23, respectively, with distilled water and 10 ml of the dilution was sprayed on the plants. Three days after spraying the solution, condia suspension of Botrytis cinerea were inoculated by spraying on test plants and then put for 16 hours in an inoculation chamber (20° C. to 23° C.) to promote disease. Seven days after inoculation, the disease severity of the test plants was observed and the effectiveness of test sample was judged.

[11] = Plasmopara viticola, 168 h, read-out: Preventive value
[12] = Pseudoperonospora cubensis, in Cucumis sativus, 168 h, read-out: Preventive value
[13] = Puccinia recondita, in Triticum aestivum, 168 h, read-out: Preventive value
[14] = Blumeria graminis, in Hordeum vulgare, 168 h, read-out: Preventive value
[15] = Botrytis cinerea, in Solanum lycopersicum, 168 h, read-out: Preventive value
[16] = Phytophthora infestans, in Solanum lycopersicum, 168 h, read-out: Preventive value
[17] = Podosphaera fuliginea, in Cucumis sativus, 168 h, read-out: Preventive value
[18] = Pythium aphanidermatum, in Cucumis sativus, soil, 336 h, read-out: Preventive value

## O=C(NCc1ncc(C(F)(F)F)cc1Cl)c1c(Cl)cccc1Cl [fluopicolide]
[1]; 250 ppm
  Preventive value: 0
[2]; 10 ppm
  Preventive value: 73
[3]; 10 ppm
  Preventive value: 83
[4]; 10 ppm
  Preventive value: 83
[5]; 10 ppm
  Preventive value: 83
[6]
  Preventive value: 83

## CCO[PH](=O)O [fosethyl]
[2]; 250 ppm
  Preventive value: 0
[3]; 250 ppm
  Preventive value: 0
[7]; 250 ppm
  Preventive value: 0
[8]; 250 ppm
  Preventive value: 17
[4]; 250 ppm
  Preventive value: 0
[5]; 250 ppm
  Preventive value: 33
[9]; 250 ppm
  Preventive value: 17
[6]
  Preventive value: 0

## O=C1OCc2c(Cl)c(Cl)c(Cl)c(Cl)c21 [fthalide]
[1]
  pest or weed control at 10 ppm: 50%

## Cc1cc(O)no1 [hymexazol]
[1]
  pest or weed control at 250 ppm: 33%
[2]; [11]
  pest or weed control at 250 ppm: 0%
[3]; [12]
  pest or weed control at 250 ppm: 0%
[7]; [13]
  pest or weed control at 250 ppm: 0%
[8]; [14]
  pest or weed control at 250 ppm: 0%
[10]; [15]
  pest or weed control at 250 ppm: 0%
[4]; [12]
  pest or weed control at 250 ppm: 0%
[5]; [16]
  pest or weed control at 250 ppm: 0%
[9]; [17]
  pest or weed control at 250 ppm: 0%
[6]; [18]
  pest or weed control at 50 ppm: 67%

## CCCCCCCCCCCCc1ccc(S(=O)(=O)O)cc1.CCCCCCCCCCCCc1ccc(S(=O)(=O)O)cc1.CCCCCCCCCCCCc1ccc(S(=O)(=O)O)cc1.NC(N)=NCCCCCCCCNCCCCCCCCN=C(N)N [iminoctadine albesilate]
[1]; 250 ppm
  Preventive value: 50
[2]; 250 ppm
  Preventive value: 0
[3]; 250 ppm
  Preventive value: 0
[7]; 250 ppm
  Preventive value: 40
[8]; 50 ppm
  Preventive value: 17
[10]; 10 ppm
  Preventive value: 67
[4]; 250 ppm
  Preventive value: 40
[5]; 250 ppm
  Preventive value: 0
[9]; 50 ppm
  Preventive value: 83

## CC(C)NC(=O)N1CC(=O)N(c2cc(Cl)cc(Cl)c2)C1=O [iprodione]
[1]
  pest or weed control at 250 ppm: 0%
[7]; [13]
  pest or weed control at 250 ppm: 33%
[8]; [14]
  pest or weed control at 250 ppm: 17%
[10]; [15]
  pest or weed control at 2 ppm: 40%
[9]; [17]
  pest or weed control at 250 ppm: 33%

## C[C@H]1O[C@H](O[C@H]2[C@H](O)[C@@H](O)[C@@H](O)[C@H](O)[C@@H]2O)[C@@H](N)C[C@@H]1NC(=N)C(=O)O [kasugamycin]
[1]; 10 ppm
  Preventive value: 73

## C#CCOc1ccc(CCNC(=O)C(OCC#C)c2ccc(Cl)cc2)cc1OC (stereo not shown) [mandipropamid]
[2]; 0.4 ppm
  Preventive value: 73
[3]; 0.4 ppm
  Preventive value: 40
[4]; 0.4 ppm
  Preventive value: 67
[5]; 0.4 ppm
  Preventive value: 73

## CCCOC(=O)NCCCN(C)C [propamocarb hydrochloride]
[2]; [11]
  pest or weed control at 250 ppm: 33%
[3]; [12]
  pest or weed control at 250 ppm: 40%
[4]; [12]
  pest or weed control at 250 ppm: 67%
[5]; [16]
  pest or weed control at 250 ppm: 67%
[6]; [18]
  pest or weed control at 250 ppm: 0%

## Fc1ccc(Oc2ccnc3cc(Cl)cc(Cl)c23)cc1 [quinoxyfen]
[7]; [13]
  pest or weed control at 250 ppm: 0%
[8]; [14]
  pest or weed control at 2 ppm: 93%
[10]; [15]
  pest or weed control at 250 ppm: 0%
[9]; [17]
  pest or weed control at 2 ppm: 83%

## Cc1cccc2sc3nncn3c12 [tricyclazole]
[1]
  pest or weed control at 10 ppm: 50%

## CCCOC/C(=N\c1ccc(Cl)cc1C(F)(F)F)n1ccnc1 [triflumizole]
[7]; [13]
  pest or weed control at 2 ppm: 40%
[8]; [14]
  pest or weed control at 0.4 ppm: 50%
[10]; [15]
  pest or weed control at 50 ppm: 67%
[9]; [17]
  pest or weed control at 0.4 ppm: 97%

## OCC1=C[C@H](N[C@H]2C[C@H](CO)[C@@H](O[C@@H]3O[C@H](CO)[C@@H](O)[C@H](O)[C@H]3O)[C@H](O)[C@H]2O)[C@H](O)[C@@H](O)[C@@H]1O [validamycin]
[1]
  pest or weed control at 10 ppm: 50%

## CCC(C)(NC(=O)c1cc(Cl)c(C)c(Cl)c1)C(=O)CCl (stereo not shown) [zoxamide]
[1]
  pest or weed control at 250 ppm: 0%
[2]; [11]
  pest or weed control at 2 ppm: 83%
[3]; [12]
  pest or weed control at 2 ppm: 33%
[4]; [12]
  pest or weed control at 2 ppm: 67%
[5]; [16]
  pest or weed control at 2 ppm: 50%
[6]; [18]
  pest or weed control at 250 ppm: 0%

## manzeb
[2]; 10 ppm
  Preventive value: 33
[3]; 10 ppm
  Preventive value: 0
[7]; 50 ppm
  Preventive value: 83
[8]; 50 ppm
  Preventive value: 40
[10]; 50 ppm
  Preventive value: 40
[4]; 10 ppm
  Preventive value: 90
[5]; 10 ppm
  Preventive value: 67
[9]; 50 ppm
  Preventive value: 50
